pKi: −log10 of the molar value. Structures can show the parent of a compound that is named as a salt. Where two headings read alike, the source gives them in different places.
Target: HPK full length, T165E S171E (Homo sapiens (Human), UniProt Q92918, S171E/T165E)
Assay: HPK1-FL HTRF enzymatic assay ("HTRF")
Type: biochemical
Details: ATP 1 mM
In short: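 Full-length HPK1 (T165E/S171E) was preincubated 30 min with compound, then reacted 60 min with biotin-SLP-76 and 1 mM ATP. Phospho-SLP-76 was detected by HTRF (Eu-anti-pSLP76 antibody, SA-XL665) after a further 60 min.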

Sequence of HPK full length, T165E S171E (Q92918 whole entry T165E/S171E, looked up): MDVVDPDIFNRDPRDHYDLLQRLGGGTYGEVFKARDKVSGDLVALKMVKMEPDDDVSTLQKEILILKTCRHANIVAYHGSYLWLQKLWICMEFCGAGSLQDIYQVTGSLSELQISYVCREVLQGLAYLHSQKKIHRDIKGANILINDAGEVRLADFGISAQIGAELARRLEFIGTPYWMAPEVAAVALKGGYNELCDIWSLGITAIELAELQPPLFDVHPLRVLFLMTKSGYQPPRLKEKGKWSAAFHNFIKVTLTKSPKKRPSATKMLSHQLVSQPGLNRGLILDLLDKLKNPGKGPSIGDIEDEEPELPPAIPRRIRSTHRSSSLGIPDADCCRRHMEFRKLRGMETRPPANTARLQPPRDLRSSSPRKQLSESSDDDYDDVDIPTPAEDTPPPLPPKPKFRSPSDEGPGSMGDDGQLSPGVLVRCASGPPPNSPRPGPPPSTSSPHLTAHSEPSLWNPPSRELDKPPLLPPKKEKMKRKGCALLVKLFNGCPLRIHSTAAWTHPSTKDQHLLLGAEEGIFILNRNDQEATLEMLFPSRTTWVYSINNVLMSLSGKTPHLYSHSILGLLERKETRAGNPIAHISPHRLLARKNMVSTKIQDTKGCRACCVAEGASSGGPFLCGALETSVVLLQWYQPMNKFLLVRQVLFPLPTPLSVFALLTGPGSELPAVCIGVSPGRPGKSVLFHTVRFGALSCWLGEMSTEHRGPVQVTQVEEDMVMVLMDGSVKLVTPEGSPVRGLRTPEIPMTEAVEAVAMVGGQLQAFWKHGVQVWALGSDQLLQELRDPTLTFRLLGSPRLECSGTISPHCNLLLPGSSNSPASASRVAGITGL

SMILES | pKi (read-out: HPK1 Ki) | pKi (HPK1 Ki)
Cc1c(-c2cc3cc(NC(=O)O[C@@H]4CCOC4)ncc3c(N)c2F)cnc2c1[C@H](O)CC2 [Compound 548b, (R)-tetrahydrofuran-3-yl (8-amino-7-fluoro-6-((R)-5-hydroxy-4-methyl-6,7-dihydro-5H-cyclopenta[b]pyridin-3-yl)isoquinolin-3-yl)carbamate] | 7.03 | 
Cc1c(-c2cc3cc(NC(=O)O[C@H]4C[C@@H](C(C)(C)C#N)C4)ncc3c(N)c2F)cnc2c1NCCO2 [Compound 549a, (1s,3s)-3-(2-Cyanopropan-2-yl)cyclobutyl (8-amino-7-fluoro-6-(8-methyl-2,3-dihydro-1H-pyrido[2,3-b][1,4]oxazin-7-yl)isoquinolin-3-yl)carbamate] | > 10.89 | 
Cc1c(-c2cc3cc(NC(=O)O[C@H]4C[C@H](C(C)(C)C#N)C4)ncc3c(N)c2F)cnc2c1NCCO2 [Compound 549b, (1r,3r)-3-(2-Cyanopropan-2-yl)cyclobutyl (8-amino-7-fluoro-6-(8-methyl-2,3-dihydro-1H-pyrido[2,3-b][1,4]oxazin-7-yl)isoquinolin-3-yl)carbamate] | > 10.89 | 
Cc1c(-c2cc3cc(NC(=O)O[C@H]4C[C@@H](N5CCOCC5)C4)ncc3c(N)c2F)cnc2c1NCCO2 [Compound 550b, (1s,3s)-3-Morpholinocyclobutyl (8-amino-7-fluoro-6-(8-methyl-2,3-dihydro-1H-pyrido[2,3-b][1,4]oxazin-7-yl)isoquinolin-3-yl)carbamate] |  | 10.27
Cc1c(-c2cc3cc(NC(=O)OC4CC(O)(C5CC5)C4)ncc3c(N)c2F)cnc2c1NCCO2 (stereo not drawn) [Compound 551a, (3-Cyclopropyl-3-hydroxy-cyclobutyl) N-[8-amino-7-fluoro-6-(8-methyl-2,3-dihydro-1H-pyrido[2,3-b][1,4]oxazin-7-yl)-3-isoquinolyl]carbamate] | > 10.89 | 
Cc1c(-c2cc3cc(NC(=O)OC4CN(S(C)(=O)=O)C4)ncc3c(N)c2F)cnc2c1NCCO2 [Compound 552, 1-(Methylsulfonyl)azetidin-3-yl (8-amino-7-fluoro-6-(8-methyl-2,3-dihydro-1H-pyrido[2,3-b][1,4]oxazin-7-yl)isoquinolin-3-yl)carbamate] | 10.85 | 
Cc1c(-c2cc3cc(NC(=O)O[C@H]4C[C@@H](O)C4)ncc3c(N)c2F)cnc2c1NCCC2 [Compound 553a, (1s,3s)-3-hydroxycyclobutyl (8-amino-7-fluoro-6-(4-methyl-5,6,7,8-tetrahydro-1,5-naphthyridin-3-yl)isoquinolin-3-yl)carbamate] | > 10.89 | 
Cc1c(-c2cc3cc(NC(=O)O[C@]4(C)C[C@H](O)C4)ncc3c(N)c2F)cnc2c1NCCO2 [Compound 554a, (1s,3s)-3-Hydroxy-1-methylcyclobutyl (8-amino-7-fluoro-6-(8-methyl-2,3-dihydro-1H-pyrido[2,3-b][1,4]oxazin-7-yl)isoquinolin-3-yl)carbamate] | 9.60 | 
Cc1c(-c2cc(N)c3cnc(NC(=O)O[C@H]4C[C@@H](C#N)C4)cc3c2)cnc2c1NCCO2 [Compound 557a, (1s,3s)-3-Cyanocyclobutyl (8-amino-6-(8-methyl-2,3-dihydro-1H-pyrido[2,3-b][1,4]oxazin-7-yl)isoquinolin-3-yl)carbamate hydrochloride] | > 10.89 | 
Cc1c(-c2cc3cc(NC(=O)O[C@H]4CC[C@@H]4C)ncc3c(N)c2F)cnc2c1NCCO2 [Compound 559b, [(1S,2S)-2-methylcyclobutyl]N-[8-amino-7-fluoro-6-(8-methyl-2,3-dihydro-1H-pyrido[2,3-b][1,4]oxazin-7-yl)-3-isoquinolyl]carbamate] | 9.85 | 
Cc1c(-c2cc3cc(NC(=O)O[C@H]4CC[C@H]4C)ncc3c(N)c2F)cnc2c1NCCO2 [Compound 559d, [(1S,2R)-2-methylcyclobutyl]N-[8-amino-7-fluoro-6-(8-methyl-2,3-dihydro-1H-pyrido[2,3-b][1,4]oxazin-7-yl)-3-isoquinolyl]carbamate] | > 10.89 | 
Cc1c(-c2cc3cc(NC(=O)OC4CC(O)C4)ncc3c(N)c2F)cnc2c1NC[C@H](C)C2 (stereo partly drawn) [Compound 560b, (1s,3s)-3-Hydroxycyclobutyl (8-amino-6-((R)-4,7-dimethyl-5,6,7,8-tetrahydro-1,5-naphthyridin-3-yl)-7-fluoroisoquinolin-3-yl)carbamate] | 9.49 | 
Cc1c(-c2cc3cc(NC(=O)O[C@@H]4CCOC4)ncc3c(N)c2F)cnc2c1C(C#N)CCO2 (stereo partly drawn) [Compound 562a, (R)-Tetrahydrofuran-3-yl (8-amino-6-(4-cyano-5-methyl-3,4-dihydro-2H-pyrano[2,3-b]pyridin-6-yl)-7-fluoroisoquinolin-3-yl)carbamate] | 10.17 | 
Cc1c(-c2cc3cc(NC(=O)O[C@@H]4CO[C@H]5COC[C@H]54)ncc3c(N)c2F)cnc2c1NCCO2 [Compound 563a, (3S,3aR,6aR)-Hexahydrofuro[3,4-b]furan-3-yl (8-amino-7-fluoro-6-(8-methyl-2,3-dihydro-1H-pyrido[2,3-b][1,4]oxazin-7-yl)isoquinolin-3-yl)carbamate] |  | 9.66
Cc1c(-c2cc3cc(NC(=O)O[C@@H]4CCN([C@H]5CCOC5)C[C@@H]4F)ncc3c(N)c2F)cnc2c1NCCO2 [Compound 569a, (3S,4R)-3-Fluoro-1-((S)-tetrahydrofuran-3-yl)piperidin-4-yl (8-amino-7-fluoro-6-(8-methyl-2,3-dihydro-1H-pyrido[2,3-b][1,4]oxazin-7-yl)isoquinolin-3-yl)carbamate] | 9.56 | 
Cc1c(-c2cc3cc(NC(=O)O[C@@H]4CCN([C@@H]5CCOC5)C[C@@H]4F)ncc3c(N)c2F)cnc2c1NCCO2 [Compound 569b, (3S,4R)-3-fluoro-1-((R)-tetrahydrofuran-3-yl)piperidin-4-yl (8-amino-7-fluoro-6-(8-methyl-2,3-dihydro-1H-pyrido[2,3-b][1,4]oxazin-7-yl)isoquinolin-3-yl)carbamate] | 9.60 | 
Cc1c(-c2cc3cc(NC(=O)O[C@H]4CCN([C@H]5CCOC5)C[C@H]4F)ncc3c(N)c2F)cnc2c1NCCO2 [Compound 569c, (3R,4S)-3-fluoro-1-((S)-tetrahydrofuran-3-yl)piperidin-4-yl (8-amino-7-fluoro-6-(8-methyl-2,3-dihydro-1H-pyrido[2,3-b][1,4]oxazin-7-yl)isoquinolin-3-yl)carbamate] | 10.54 | 
Cc1c(-c2cc3cc(NC(=O)O[C@H]4CCN([C@@H]5CCOC5)C[C@H]4F)ncc3c(N)c2F)cnc2c1NCCO2 [Compound 569d, (3R,4S)-3-fluoro-1-((R)-tetrahydrofuran-3-yl)piperidin-4-yl (8-amino-7-fluoro-6-(8-methyl-2,3-dihydro-1H-pyrido[2,3-b][1,4]oxazin-7-yl)isoquinolin-3-yl)carbamate] |  | 10.51
Cc1c(-c2cc3cc(NC(=O)O[C@H]4C[C@H](CO)C4)ncc3c(N)c2F)cnc2c1NCCO2 [Compound 571a, (1r,3r)-3-(Hydroxymethyl)cyclobutyl (8-amino-7-fluoro-6-(8-methyl-2,3-dihydro-1H-pyrido[2,3-b][1,4]oxazin-7-yl)isoquinolin-3-yl)carbamate] | 10.85 | 
Cc1c(-c2cc3cc(NC(=O)O[C@H]4C[C@@H](CO)C4)ncc3c(N)c2F)cnc2c1NCCO2 [Compound 571b, (1s,3s)-3-(Hydroxymethyl)cyclobutyl (8-amino-7-fluoro-6-(8-methyl-2,3-dihydro-1H-pyrido[2,3-b][1,4]oxazin-7-yl)isoquinolin-3-yl)carbamate] | > 10.89 | 
Cc1c(-c2cc3cc(NC(=O)O[C@H]4C[C@@H](S(C)(=O)=O)C4)ncc3c(N)c2F)cnc2c1NCCO2 [Compound 572a, (1s,3s)-3-(Methylsulfonyl)cyclobutyl (8-amino-7-fluoro-6-(8-methyl-2,3-dihydro-1H-pyrido[2,3-b][1,4]oxazin-7-yl)isoquinolin-3-yl)carbamate] | > 10.89 | 
Cc1c(-c2cc3cc(NC(=O)O[C@H]4C[C@@H](C(C)(C)O)C4)ncc3c(N)c2F)cnc2c1NCCO2 [Compound 574b, (1s,3s)-3-(2-hydroxypropan-2-yl)cyclobutyl (8-amino-7-fluoro-6-(8-methyl-2,3-dihydro-1H-pyrido[2,3-b][1,4]oxazin-7-yl)isoquinolin-3-yl)carbamate] | > 10.89 | 
Cc1c(-c2cc3cc(NC(=O)OC4C5COCC4CN(C4COC4)C5)ncc3c(N)c2F)cnc2c1NCCO2 [Compound 575a, (1R,5S,9s)-7-(Oxetan-3-yl)-3-oxa-7-azabicyclo[3.3.1]nonan-9-yl (8-amino-7-fluoro-6-(8-methyl-2,3-dihydro-1H-pyrido[2,3-b][1,4]oxazin-7-yl)isoquinolin-3-yl)carbamate] | > 10.89 | 
CO[C@H]1C[C@H](OC(=O)Nc2cc3cc(-c4cnc5c(c4C)NCCO5)c(F)c(N)c3cn2)C1 [Compound 576a, (1r, 3r)-3-Methoxycyclobutyl (8-amino-7-fluoro-6-(8-methyl-2,3-dihydro-1H-pyrido[2,3-b][1,4]oxazin-7-yl)isoquinolin-3-yl)carbamate] | > 10.89 | 
Cc1c(-c2cc3cc(NC(=O)O[C@H]4C[C@@H](C(F)F)C4)ncc3c(N)c2F)cnc2c1NCCO2 [Compound 577a, (1s,3s)-3-(difluoromethyl)cyclobutyl (8-amino-7-fluoro-6-(8-methyl-2,3-dihydro-1H-pyrido[2,3-b][1,4]oxazin-7-yl)isoquinolin-3-yl)carbamate] | 10.82 | 
Cc1c(-c2cc3cc(NC(=O)O[C@H]4C[C@H](C(F)F)C4)ncc3c(N)c2F)cnc2c1NCCO2 [Compound 577b, (1r,3r)-3-(difluoromethyl)cyclobutyl (8-amino-7-fluoro-6-(8-methyl-2,3-dihydro-1H-pyrido[2,3-b][1,4]oxazin-7-yl)isoquinolin-3-yl)carbamate] | > 10.89 | 
Cc1c(-c2cc3cc(NC(=O)OC4CCS(=O)(=O)CC4)ncc3c(N)c2F)cnc2c1NCCC2 [Compound 579, 1,1-Dioxidotetrahydro-2H-thiopyran-4-yl (8-amino-7-fluoro-6-(4-methyl-5,6,7,8-tetrahydro-1,5-naphthyridin-3-yl)isoquinolin-3-yl)carbamate] | 9.07 | 

— patent publication US11612606B2, “8-aminoisoquinoline compounds and uses thereof” (priority 2018, dated 2023)
